The source of these data is patent EP0409227A2, “Pyrimidine nucleosides, their preparation and pharmaceutical preparations” (MATTHES, Eckart, Dr., priority 1989, dated 1991).

SMILES strings stand for the structures. Some results are limits rather than exact numbers.

One data set relates to HBsAg-Sekretion von Hep G2 (2.2.15)-Zellen. Kind of data set: Inhibition of HBsAg secretion of Hep G2 (2.2.15) cells (solid-phase radioimmunoassay of the medium). Format: cell-based, HBV. The note with it: nucleoside 0,01 µM; 4 days + 24 h; mean ± SD of five experiments. As to the method:
(§1) Die Testung der antiviralen Wirksamkeit der Nucleoside auf zelluärer Ebene erfolgte an einer menschlichen Hepatoblastom-Zellinie, die mit dem HBV-Genom tranfiziert wurde und sowohl das Oberflächenantigen des Virus (HBsAg) als auch die HBV-DNA permanent produziert und infektiöse Viruspartikel in das Medium abgibt (Hep G2-Zellen, Klon 2.2.15, Sells et al. Proc.Natl.Acad. Sci. 84, 1005 (1987)). Die Zellen (5x10⁵/ml) wurden in RPMI 1640-Medium mit 2 mM Glutamin und 10% fetalem Kälberserum allein oder zusammen mit den Nucleosid-Analoga für 4 Tage inkubiert, danach wurden den Ansätzen für 24 Stunden ³H-Thymidin bzw. ³H-Desoxyadenosin (3 µCi/ml) zugesetzt, die Zellen abzentrifugiert und darin die säureunlösliche Radioaktivität und damit der Einfluß auf die DNA-Synthese bestimmt. Im Inkubationsmedium wurde das HBsAg durch Festphasenradioimmunoassay (Travenol-Genentech Diagnostics, Cambridge, MA) entsprechend den Instruktionen des Herstellers ermittelt. Die Tabelle 4 faßt die Ergebnisse zusammen, die belegen, daß die getesteten Verbindungen hochwirksame und selektive Hemmstoffe der HBV-Vermehrung sind.
Turning to `Nc1nc(N)c2ncn([C@H]3C[C@H](F)[C@@H](CO)O3)c2n1` [2',3'-Didesoxy-3'-fluor-2,6-diaminopurinribosid], the HBsAg is 3,2 ± 0,6 ng/ml.
Same read-out and setting: the same measure for `Nc1ccn([C@H]2C=C[C@@H](CO)O2)c(=O)n1` [2',3'-Didehydro-2',3'-didesoxycytidin]: 12,1 ± 1,6 ng/ml.

The same data set, now with this note: nucleoside 0,1 µM; 4 days + 24 h; mean ± SD of five experiments.
Regarding `Nc1nc(N)c2ncn([C@H]3C[C@H](F)[C@@H](CO)O3)c2n1` [2',3'-Didesoxy-3'-fluor-2,6-diaminopurinribosid], the HBsAg is on record as < 0,1 ng/ml.
Take `Nc1ccn([C@H]2C=C[C@@H](CO)O2)c(=O)n1` [2',3'-Didehydro-2',3'-didesoxycytidin]: the HBsAg is 0,8 ± 0,2 ng/ml.

The same data set, now with this note: nucleoside 0,01 µM; % of control without nucleoside (100).
`Nc1nc(N)c2ncn([C@H]3C[C@H](F)[C@@H](CO)O3)c2n1` [2',3'-Didesoxy-3'-fluor-2,6-diaminopurinribosid] had an HBsAg of 18%.
`Nc1ccn([C@H]2C=C[C@@H](CO)O2)c(=O)n1` [2',3'-Didehydro-2',3'-didesoxycytidin] returned an HBsAg of 69%.

The data set is the same for the next values; noted with them: nucleoside 0,1 µM; % of control without nucleoside (100).
`Nc1nc(N)c2ncn([C@H]3C[C@H](F)[C@@H](CO)O3)c2n1` [2',3'-Didesoxy-3'-fluor-2,6-diaminopurinribosid] showed an HBsAg of less than 1%.
On to `Nc1ccn([C@H]2C=C[C@@H](CO)O2)c(=O)n1` [2',3'-Didehydro-2',3'-didesoxycytidin], for which the HBsAg came to 5%.

Still in this data set, the particulars now being: nucleoside 0,03 µM; 4 days + 24 h; mean ± SD of five experiments.
For the compound `Nc1nc(N)c2ncn([C@H]3C[C@H](F)[C@@H](CO)O3)c2n1` [2',3'-Didesoxy-3'-fluor-2,6-diaminopurinribosid], the HBsAg was 2,0 ± 0,5 ng/ml.
Turning to `Nc1ccn([C@H]2C=C[C@@H](CO)O2)c(=O)n1` [2',3'-Didehydro-2',3'-didesoxycytidin], the HBsAg was 5,8 ± 1,2 ng/ml.

Still in this data set, the particulars now being: nucleoside 0,3 µM; 4 days + 24 h; mean ± SD of five experiments.
For the compound `Nc1nc(N)c2ncn([C@H]3C[C@H](F)[C@@H](CO)O3)c2n1` [2',3'-Didesoxy-3'-fluor-2,6-diaminopurinribosid], the HBsAg is < 0,1 ng/ml.
On to `Nc1ccn([C@H]2C=C[C@@H](CO)O2)c(=O)n1` [2',3'-Didehydro-2',3'-didesoxycytidin], for which the HBsAg is given as 0,4 ± 0,2 ng/ml.

Still in this data set, the particulars now being: nucleoside 0,03 µM; % of control without nucleoside (100).
In the case of `Nc1nc(N)c2ncn([C@H]3C[C@H](F)[C@@H](CO)O3)c2n1` [2',3'-Didesoxy-3'-fluor-2,6-diaminopurinribosid], the HBsAg is given as 11%.
As for `Nc1ccn([C@H]2C=C[C@@H](CO)O2)c(=O)n1` [2',3'-Didehydro-2',3'-didesoxycytidin], the HBsAg came to 33%.

Still in this data set, the particulars now being: nucleoside 0,3 µM; % of control without nucleoside (100).
For the compound `Nc1nc(N)c2ncn([C@H]3C[C@H](F)[C@@H](CO)O3)c2n1` [2',3'-Didesoxy-3'-fluor-2,6-diaminopurinribosid], the HBsAg was less than 1%.
The same measure, in the same setting: the value for `Nc1ccn([C@H]2C=C[C@@H](CO)O2)c(=O)n1` [2',3'-Didehydro-2',3'-didesoxycytidin] was 2%.

The same data set, now with this note: nucleoside 0,003 µM; 4 days + 24 h; mean ± SD of five experiments.
`Nc1nc(N)c2ncn([C@H]3C[C@H](F)[C@@H](CO)O3)c2n1` [2',3'-Didesoxy-3'-fluor-2,6-diaminopurinribosid]: the HBsAg was 15,9 ± 2,7 ng/ml.
For `Nc1ccn([C@H]2C=C[C@@H](CO)O2)c(=O)n1` [2',3'-Didehydro-2',3'-didesoxycytidin], the HBsAg is given as 18,7 ± 2,8 ng/ml.

The data set is the same for the next values; noted with them: nucleoside 0,003 µM; % of control without nucleoside (100).
`Nc1nc(N)c2ncn([C@H]3C[C@H](F)[C@@H](CO)O3)c2n1` [2',3'-Didesoxy-3'-fluor-2,6-diaminopurinribosid] showed an HBsAg of 91%.
Turning to `Nc1ccn([C@H]2C=C[C@@H](CO)O2)c(=O)n1` [2',3'-Didehydro-2',3'-didesoxycytidin], the HBsAg was determined as 107%.

Still in this data set, the particulars now being: nucleoside 1,0 µM; 4 days + 24 h; mean ± SD of five experiments.
Turning to `Nc1nc(N)c2ncn([C@H]3C[C@H](F)[C@@H](CO)O3)c2n1` [2',3'-Didesoxy-3'-fluor-2,6-diaminopurinribosid], the HBsAg is < 0,1 ng/ml.
Regarding `Nc1ccn([C@H]2C=C[C@@H](CO)O2)c(=O)n1` [2',3'-Didehydro-2',3'-didesoxycytidin], the HBsAg is recorded as < 0,1 ng/ml.

The data set is the same for the next values; noted with them: nucleoside 1,0 µM; % of control without nucleoside (100).
With `Nc1nc(N)c2ncn([C@H]3C[C@H](F)[C@@H](CO)O3)c2n1` [2',3'-Didesoxy-3'-fluor-2,6-diaminopurinribosid], the HBsAg is given as less than 1%.
`Nc1ccn([C@H]2C=C[C@@H](CO)O2)c(=O)n1` [2',3'-Didehydro-2',3'-didesoxycytidin] yielded an HBsAg of less than 1%.

The data set is the same for the next values; noted with them: nucleoside 3,0 µM; 4 days + 24 h; mean ± SD of five experiments.
`Nc1nc(N)c2ncn([C@H]3C[C@H](F)[C@@H](CO)O3)c2n1` [2',3'-Didesoxy-3'-fluor-2,6-diaminopurinribosid]: the HBsAg is reported as < 0,1 ng/ml.
In the case of `Nc1ccn([C@H]2C=C[C@@H](CO)O2)c(=O)n1` [2',3'-Didehydro-2',3'-didesoxycytidin], the HBsAg is reported as < 0,1 ng/ml.

The same data set, now with this note: nucleoside 3,0 µM; % of control without nucleoside (100).
The compound `Nc1nc(N)c2ncn([C@H]3C[C@H](F)[C@@H](CO)O3)c2n1` [2',3'-Didesoxy-3'-fluor-2,6-diaminopurinribosid] gave an HBsAg of less than 1%.
Compound `Nc1ccn([C@H]2C=C[C@@H](CO)O2)c(=O)n1` [2',3'-Didehydro-2',3'-didesoxycytidin] returned an HBsAg of less than 1%.

For a further data set, the system named is Hep G2 (2.2.15)-Zellen. In words: DNA synthesis of Hep G2 (2.2.15) cells (acid-insoluble radioactivity after 3H-thymidine or 3H-deoxyadenosine). Format: cell-based, menschlichen. To be noted: nucleoside 0,01 µM; 4 days, then 24 h label; mean ± SD of five experiments. The protocol: as §1
On to `Nc1nc(N)c2ncn([C@H]3C[C@H](F)[C@@H](CO)O3)c2n1` [2',3'-Didesoxy-3'-fluor-2,6-diaminopurinribosid], for which the “^3H-DNA” value was determined as 16820 ± 1775 dpm/Kultur.
On to `Nc1ccn([C@H]2C=C[C@@H](CO)O2)c(=O)n1` [2',3'-Didehydro-2',3'-didesoxycytidin], for which the “^3H-DNA” value came to 18410 ± 1895 dpm/Kultur.

The data set is the same for the next values; noted with them: nucleoside 0,1 µM; 4 days, then 24 h label; mean ± SD of five experiments.
`Nc1nc(N)c2ncn([C@H]3C[C@H](F)[C@@H](CO)O3)c2n1` [2',3'-Didesoxy-3'-fluor-2,6-diaminopurinribosid]: the “^3H-DNA” value amounted to 19990 ± 1820 dpm/Kultur.
With `Nc1ccn([C@H]2C=C[C@@H](CO)O2)c(=O)n1` [2',3'-Didehydro-2',3'-didesoxycytidin], the “^3H-DNA” value turned out to be 19930 ± 1830 dpm/Kultur.

Still in this data set, the particulars now being: nucleoside 0,03 µM; 4 days, then 24 h label; mean ± SD of five experiments.
As to `Nc1nc(N)c2ncn([C@H]3C[C@H](F)[C@@H](CO)O3)c2n1` [2',3'-Didesoxy-3'-fluor-2,6-diaminopurinribosid], the “^3H-DNA” value amounted to 17265 ± 1895 dpm/Kultur.
In the case of `Nc1ccn([C@H]2C=C[C@@H](CO)O2)c(=O)n1` [2',3'-Didehydro-2',3'-didesoxycytidin], the “^3H-DNA” value is on record as 15685 ± 1740 dpm/Kultur.

Staying with this data set, now noted: nucleoside 0,3 µM; 4 days, then 24 h label; mean ± SD of five experiments.
`Nc1nc(N)c2ncn([C@H]3C[C@H](F)[C@@H](CO)O3)c2n1` [2',3'-Didesoxy-3'-fluor-2,6-diaminopurinribosid]: the “^3H-DNA” value came to 15125 ± 1795 dpm/Kultur.
For `Nc1ccn([C@H]2C=C[C@@H](CO)O2)c(=O)n1` [2',3'-Didehydro-2',3'-didesoxycytidin], the “^3H-DNA” value was determined as 14270 ± 1655 dpm/Kultur.

The data set is the same for the next values; noted with them: nucleoside 0,003 µM; 4 days, then 24 h label; mean ± SD of five experiments.
`Nc1nc(N)c2ncn([C@H]3C[C@H](F)[C@@H](CO)O3)c2n1` [2',3'-Didesoxy-3'-fluor-2,6-diaminopurinribosid]: the “^3H-DNA” value was 19535 ± 1835 dpm/Kultur.
As for `Nc1ccn([C@H]2C=C[C@@H](CO)O2)c(=O)n1` [2',3'-Didehydro-2',3'-didesoxycytidin], the “^3H-DNA” value is recorded as 17940 ± 1865 dpm/Kultur.

Staying with this data set, now noted: nucleoside 1,0 µM; 4 days, then 24 h label; mean ± SD of five experiments.
On to `Nc1nc(N)c2ncn([C@H]3C[C@H](F)[C@@H](CO)O3)c2n1` [2',3'-Didesoxy-3'-fluor-2,6-diaminopurinribosid], for which the “^3H-DNA” value was determined as 18885 ± 1950 dpm/Kultur.
Consider `Nc1ccn([C@H]2C=C[C@@H](CO)O2)c(=O)n1` [2',3'-Didehydro-2',3'-didesoxycytidin], for which the “^3H-DNA” value turned out to be 12350 ± 1310 dpm/Kultur.

The data set is the same for the next values; noted with them: nucleoside 3,0 µM; 4 days, then 24 h label; mean ± SD of five experiments.
As for `Nc1nc(N)c2ncn([C@H]3C[C@H](F)[C@@H](CO)O3)c2n1` [2',3'-Didesoxy-3'-fluor-2,6-diaminopurinribosid], the “^3H-DNA” value is recorded as 17740 ± 1670 dpm/Kultur.
On to `Nc1ccn([C@H]2C=C[C@@H](CO)O2)c(=O)n1` [2',3'-Didehydro-2',3'-didesoxycytidin], for which the “^3H-DNA” value is given as 6535 ± 790 dpm/Kultur.
